Reference: PubChem BioAssay AID328 (DTP/NCI, 2004)
Values joined by “and” are separate entries in the source; they are usually repeats but may differ in a detail not shown here. Equal values may be shown once. Inconclusive results and toxic doses are left out.

Test system: BDF1 mice, P388 leukemia ip, median survival T/C
Assay: NCI In Vivo Anticancer Drug Screen. Data for tumor model P388 Leukemia (intraperitoneal) in B6D2F1 (BDF1) mice
Details: endpoint: median survival time, higher = longer survival
How it was run: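 Each value expresses how treatment altered survival: treated-mouse outcome over vehicle-mouse outcome, both groups bearing the transplanted tumour.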

[1] = dose: 12.5 mg/kg/injection, schedule: Q04DX003 (ip), vehicle: saline with Tween-80
[2] = dose: 25.0 mg/kg/injection, schedule: Q04DX003 (ip), vehicle: saline with Tween-80
[3] = dose: 50.0 mg/kg/injection, schedule: Q01DX009 (ip), vehicle: saline with Tween-80
[4] = dose: 100.0 mg/kg/injection, schedule: Q01DX009 (ip), vehicle: saline with Tween-80
[5] = dose: 100.0 mg/kg/injection, schedule: Q04DX003 (ip), vehicle: saline with Tween-80
[6] = dose: 200.0 mg/kg/injection, schedule: Q01DX009 (ip), vehicle: saline with Tween-80
[7] = dose: 200.0 mg/kg/injection, schedule: Q04DX003 (ip), vehicle: saline with Tween-80
[8] = dose: 400.0 mg/kg/injection, schedule: Q04DX003 (ip), vehicle: saline with Tween-80
[9] = dose: 200.0 mg/kg/injection, schedule: Q04DX003 (ip), vehicle: Klucel (hydroxypropylcellulose) (HPC)
[10] = dose: 400.0 mg/kg/injection, schedule: Q04DX003 (ip), vehicle: Klucel (hydroxypropylcellulose) (HPC)
[11] = dose: 25.0 mg/kg/injection, schedule: Q01DX009 (ip), vehicle: saline with Tween-80
[12] = dose: 50.0 mg/kg/injection, schedule: Q01DX009 (ip), vehicle: other
[13] = dose: 100.0 mg/kg/injection, schedule: Q01DX009 (ip), vehicle: other
[14] = dose: 200.0 mg/kg/injection, schedule: Q01DX009 (ip), vehicle: other
[15] = dose: 25.0 mg/kg/injection, schedule: Q04DX003 (ip), vehicle: Klucel (hydroxypropylcellulose) (HPC)
[16] = dose: 50.0 mg/kg/injection, schedule: Q04DX003 (ip), vehicle: Klucel (hydroxypropylcellulose) (HPC)
[17] = dose: 100.0 mg/kg/injection, schedule: Q04DX003 (ip), vehicle: Klucel (hydroxypropylcellulose) (HPC)

O=[N+]([O-])/C=C/c1ccc2ccccc2n1
T/C (dose: 1.25 mg/kg/injection, schedule: Q01DX009 (ip), vehicle: saline with Tween-80): 103 % of control | T/C (dose: 2.5 mg/kg/injection, schedule: Q01DX009 (ip), vehicle: saline with Tween-80): 92 % of control and 94 % of control | T/C (dose: 5.0 mg/kg/injection, schedule: Q01DX009 (ip), vehicle: saline with Tween-80): 94 % of control and 110 % of control | T/C (dose: 10.0 mg/kg/injection, schedule: Q01DX009 (ip), vehicle: saline with Tween-80): 94 % of control and 115 % of control | T/C [1]: 111 % of control | T/C (dose: 20.0 mg/kg/injection, schedule: Q01DX009 (ip), vehicle: saline with Tween-80): 94 % of control | T/C [2]: 102 % of control

C(=Nc1ccccc1)c1ccc(C=Nc2ccccc2)cc1
T/C [3]: 110 % of control | T/C [4]: 105 % of control | T/C [5]: 104 % of control | T/C [6]: 100 % of control | T/C [7]: 109 % of control | T/C [8]: 100 % of control

CCc1nnc2c3cc4ccccc4n3cnn12
T/C [3]: 86 % of control | T/C [4]: 87 % of control | T/C [6]: 103 % of control

Clc1nc(SC2=NCCN2)c2[nH]cnc2n1
T/C [1]: 108 % of control | T/C (dose: 33.0 mg/kg/injection, schedule: Q04DX003 (ip), vehicle: saline with Tween-80): 118 % of control | T/C (dose: 50.0 mg/kg/injection, schedule: Q04DX003 (ip), vehicle: saline with Tween-80): 154 % of control

COc1cccc(CCCC(=O)O)c1
T/C [9]: 95 % of control | T/C [10]: 87 % of control

Cn1cnc([N+](=O)[O-])c1Cl
T/C [11]: 101 % of control | T/C (dose: 50.0 mg/kg/injection, schedule: Q01DX005 (ip), vehicle: saline): 95 % of control | T/C [3]: 92 % of control | T/C (dose: 100.0 mg/kg/injection, schedule: Q01DX005 (ip), vehicle: saline): 104 % of control | T/C [4]: 106 % of control | T/C (dose: 100.0 mg/kg/injection, schedule: Q04DX003 (ip), vehicle: saline): 100 % of control | T/C [6]: 101 % of control | T/C (dose: 200.0 mg/kg/injection, schedule: Q04DX003 (ip), vehicle: saline): 105 % of control

COc1cc(/C=N/NC(N)=S)cc(OC)c1OC
T/C [4]: 104 % of control | T/C [5]: 90 % of control | T/C [6]: 104 % of control | T/C [7]: 109 % of control | T/C (dose: 400.0 mg/kg/injection, schedule: Q01DX009 (ip), vehicle: saline with Tween-80): 100 % of control | T/C [8]: 104 % of control

CC1CCC(C)N1P(=O)(N1CC1)N1CC1 (stereo not drawn)
T/C (dose: 16.5 mg/kg/injection, schedule: Q04DX003 (ip), vehicle: saline with Tween-80): 168 % of control and 183 % of control | T/C [2]: 120 % of control and 218 % of control

CC(=O)OCC(OC(C)=O)C(OC(C)=O)C(OC(C)=O)C(/C=N/NC(N)=S)=N/NC(N)=S (stereo not drawn)
T/C [12]: 90 % of control | T/C [13]: 100 % of control | T/C (dose: 100.0 mg/kg/injection, schedule: Q04DX003 (ip), vehicle: other): 95 % of control | T/C [14]: 100 % of control | T/C (dose: 200.0 mg/kg/injection, schedule: Q04DX003 (ip), vehicle: other): 105 % of control | T/C (dose: 400.0 mg/kg/injection, schedule: Q04DX003 (ip), vehicle: other): 120 % of control

Nc1cc(N)nc(S(=O)O)n1
T/C (dose: 25.0 mg/kg/injection, schedule: Q01DX009 (ip), vehicle: Klucel (hydroxypropylcellulose) (HPC)): 95 % of control and 111 % of control and 120 % of control | T/C [15]: 104 % of control | T/C (dose: 50.0 mg/kg/injection, schedule: Q01DX009 (ip), vehicle: Klucel (hydroxypropylcellulose) (HPC)): 95 % of control | T/C [16]: 95 % of control | T/C (dose: 100.0 mg/kg/injection, schedule: Q01DX009 (ip), vehicle: Klucel (hydroxypropylcellulose) (HPC)): 90 % of control and 110 % of control | T/C [17]: 100 % of control

O=C(O)CN(CCN(CC(=O)O)CC(=O)O)CC(=O)O
T/C (dose: 25.0 mg/kg/injection, schedule: Q01DX010 (ip), vehicle: saline): 100 % of control | T/C (dose: 50.0 mg/kg/injection, schedule: Q01DX010 (ip), vehicle: saline): 91 % of control | T/C (dose: 200.0 mg/kg/injection, schedule: Q01DX010 (ip), vehicle: saline): 95 % of control

CSN1C(=O)CCC1=O
T/C (dose: 50.0 mg/kg/injection, schedule: Q04DX002 (ip), vehicle: saline): 107 % of control | T/C (dose: 100.0 mg/kg/injection, schedule: Q04DX002 (ip), vehicle: saline): 100 % of control | T/C (dose: 200.0 mg/kg/injection, schedule: Q04DX002 (ip), vehicle: saline): 109 % of control

Cc1ccc(C)c(CN(C)C)c1O
T/C [15]: 118 % of control | T/C [16]: 100 % of control | T/C [17]: 100 % of control

COc1ccc2c(c[n+](C)c3c4cc5c(cc4ccc23)OCO5)c1OC
T/C (dose: 5.0 mg/kg/injection, schedule: Q01DX010 (ip), vehicle: saline): 90 % of control | T/C (dose: 10.0 mg/kg/injection, schedule: Q01DX010 (ip), vehicle: saline): 100 % of control

COc1ccc(NC(=O)CCC(=O)O)cc1
T/C [5]: 92 % of control | T/C [7]: 88 % of control | T/C [8]: 88 % of control

O=S(=O)(O)O.[Co+3].[Co+3].[NH2-].[NH2-].[NH2-].[NH2-].[NH2-].[NH2-].[NH2-].[NH2-].[NH2-].[NH2-].[O-][O-]
T/C (dose: 1.56 mg/kg/injection, schedule: Q01DX009 (ip), vehicle: saline): 97 % of control | T/C (dose: 3.13 mg/kg/injection, schedule: Q01DX009 (ip), vehicle: saline): 98 % of control | T/C (dose: 6.25 mg/kg/injection, schedule: Q01DX009 (ip), vehicle: saline): 97 % of control

COc1ccc(NC2=CC(=O)C(=O)C=C2Nc2ccc(OC)cc2)cc1
T/C (dose: 15.0 mg/kg/injection, schedule: Q01DX009 (ip), vehicle: saline with Tween-80): 93 % of control | T/C (dose: 30.0 mg/kg/injection, schedule: Q01DX009 (ip), vehicle: saline with Tween-80): 93 % of control | T/C (dose: 60.0 mg/kg/injection, schedule: Q01DX009 (ip), vehicle: saline with Tween-80): 91 % of control

CN1CCN(C2=Nc3ccccc3Cc3ccccc32)CC1
T/C (dose: 12.5 mg/kg/injection, schedule: Q01DX009 (ip), vehicle: saline with Tween-80): 103 % of control | T/C [11]: 102 % of control | T/C [3]: 105 % of control and 108 % of control

Cc1ccccc1NC(=O)Nc1ccccc1C
T/C (dose: 0.37 mg/kg/injection, schedule: Q01DX009 (ip), vehicle: Klucel (hydroxypropylcellulose) (HPC)): 88 % of control | T/C (dose: 0.75 mg/kg/injection, schedule: Q01DX009 (ip), vehicle: Klucel (hydroxypropylcellulose) (HPC)): 100 % of control | T/C (dose: 1.5 mg/kg/injection, schedule: Q01DX009 (ip), vehicle: Klucel (hydroxypropylcellulose) (HPC)): 107 % of control | T/C [17]: 104 % of control | T/C [9]: 95 % of control | T/C [10]: 109 % of control

O=C(O)CCN1CCCc2ccccc21
T/C [12]: 95 % of control | T/C [13]: 104 % of control | T/C [14]: 95 % of control

O=[N+]([O-])C=C(S)S
T/C (dose: 12.5 mg/kg/injection, schedule: Q01DX009 (ip), vehicle: water): 101 % of control | T/C (dose: 25.0 mg/kg/injection, schedule: Q01DX009 (ip), vehicle: water): 124 % of control | T/C (dose: 50.0 mg/kg/injection, schedule: Q01DX009 (ip), vehicle: water): 117 % of control | T/C (dose: 100.0 mg/kg/injection, schedule: Q01DX009 (ip), vehicle: water): 108 % of control

CC1OC(OC2CC(O)(C(=O)CO)Cc3c(O)c4c(c(O)c32)C(=O)c2ccccc2C4=O)CC(N)C1O (stereo not drawn)
T/C (dose: 216.0 micrograms/kg/injection, schedule: Q04DX003 (ip), vehicle: water): 155 % of control | T/C (dose: 360.0 micrograms/kg/injection, schedule: Q04DX003 (ip), vehicle: water): 163 % of control | T/C (dose: 600.0 micrograms/kg/injection, schedule: Q04DX003 (ip), vehicle: water): 166 % of control
